One data set relates to NIH-3T3/PIM-2. Briefly: NIH-3T3/PIM-2 over-expression tumor xenograft. Format: in vivo, mouse. The text has this:
(§1) Male and female Nu/Nu mice were purchased from Harlan Sprague Dawley (Indianapolis, IN). Female Nu/Nu mice were used for all xenograft evaluations with the exception of the PC-3 xenografts where male Nu/Nu mice were used. Cell lines were expanded In vitro in complete media, and if adherent were harvested by trypsin-EDTA, centrifuged and resuspended in PBS 1:1 with Matrigel (BD Bioscienes). Cells were inoculated subcutaneously in the right hind flank of mice. When tumors reached 100-200 mm^3 by caliper measurement, mice were randomized and dosing of SGI-9481 or vehicle control began and continued every day for 5 days (QDx5) with 2 days off for 18-21 days. Tumor volumes and body weights were determined twice a week, and tumor weights were measured at the completion of the translational xenograft studies.
(§2) . The prostate cancer cell line 22RV1 engineered to over-express PIM-1 as previously described (Mumenthaler, et al, Mol. Cancer Ther., 2009, 8(10)2882-93) was evaluated in vivo. A second model engineered to over-express PIM-2 was established using the NIH-3T3 mouse fibroblast cell line. […]. […].

Data set [1] concerns phosphatidyl inositol-3-kinase (PI3K) family. Briefly: Selectivity study. It counts as biochemical. The note with it: data not given.
For a further data set, the system named is PC-3. Briefly: Established PC-3 mouse xenograft tumors. Format: in vivo.
From the text: as §1

Another data set deals with PC-3 cells. As to the kind of experiment: Colony formation assay, PC-3. Format: cell-based. The protocol: (§3) For shRNA growth experiments, 500 UM-UC-3 cells were seeded in a 12-well plate 48 hours post-transduction and cultured for 8-10 days at 37°C in 5% CO2. Cells were fixed with 4% paraformaldehyde in PBS, washed twice with PBS, and stained with a crystal violet solution (1% crystal violet, 10% ethanol in water). Stained cells were washed thrice with water, and imaged after drying on a GelCount colony counter (Oxford Optronix Ltd., Oxford, UK). Total staining intensity per well was determined by lysis of cells with 200 µl of Triton X-100 lysis buffer (1% Triton X-100, 50 mM Tris-HCl pH 7.4, 150 mM NaCl, 1 mM EDTA). Lysates (100 µl) from each well were transferred to a clear 96-well plate and absorbance at 560 nm was determined on an Envision microplate reader. IC50 values were determined using GraphPad Prism software. For compound treated PC-3 and UM-UC-3, cells were seeded and stained as above, but were incubated with various concentrations of test compound or DMSO one day after seeding.
(§4) Translational models were also explored for PIM dependency using shRNA knockdown. The UM-UC-3 urinary epithelial bladder carcinoma cell line was used to verify and validate dependency on PIM-1 for growth.

In another data set the test system is 22RV1/PIM-1. Briefly: 22RV1/PIM-1 over-expression tumor xenograft. Format: in vivo, mouse.
From the text: as §1, §2

The subject of the next data set is UM-UC-3 cells. As to the kind of experiment: Colony formation assay, UM-UC-3. Format: cell-based. The protocol:
as §3, §4

The test system of data set [2] is ML-2 cells (wild-type FLT3). Briefly: ML-2 mouse xenograft study. It counts as in vivo. The note with it: ML-2 xenografts (wild-type FLT3).
From the text: as §1

A further data set relates to MV-4-11 (FLT3-ITD). As to the kind of experiment: MV-4-11 mouse xenograft study. The note with it: MV-4-11 xenografts (FLT3-ITD). Format: in vivo.
From the text: as §1

For another data set, the system named is UM-UC-3. Briefly: Established UM-UC-3 mouse xenograft tumors. It counts as in vivo.
From the text: as §1

Where [3] appears, read: 125 mg/kg, less than with 200 mg/kg.

As to `CC(C)(O)[C@H]1CC[C@H](Nc2ccc3ncc(-c4cccc(C(F)(F)F)c4)n3n2)CC1` [8-31], the subcutaneous tumor growth result with NIH-3T3/PIM-2 (NIH-3T3/PIM-2 + compound vs. NIH-3T3/PIM-2 + vehicle) was “significantly inhibited”; in the data set with 22RV1/PIM-1 (22RV1/PIM-1 + compound vs. 22RV1/PIM-1 + vehicle), “significantly reduced”. In addition, the body weight entry with NIH-3T3/PIM-2 (NIH-3T3/PIM-2 xenograft mice) and in the data set on 22RV1/PIM-1 (22RV1/PIM-1 xenograft mice) was “No significant changes in body weight” in each case. Also, the “inhibitory activity against multiple members of the PI3K family” value in data set [1] was “inhibitory activity”. In addition, the tumor growth inhibition result (with PC-3 (setting [3]); in data set [2]; with UM-UC-3 (setting [3])) was “significant tumor growth inhibition” each time. Moreover, in the data set on PC-3 (PC-3 tumor-burdened mice, 200 mg/kg), the “plasma and tumor tissue levels” value is on record as “above the in vitro proliferation EC50”. The “body weight or gross adverse toxicity” value with PC-3 (oral dosing of 200 mg/kg) and with UM-UC-3 (oral dosing of 200 mg/kg) was “no significant changes in body weight or gross adverse toxicity” in each case. Also, the “tumor growth measured by volume (caliper) and by final tumor weight” value in the data set with PC-3 (oral dosing of 200 mg/kg) and with UM-UC-3 (oral dosing of 200 mg/kg) was “significantly reduced” each time. Further, the colony growth entry in the data set with PC-3 cells and in the data set on UM-UC-3 cells was “reduced colony growth” throughout. Also, the “effect on established xenografts” value in the data set with MV-4-11 (FLT3-ITD) is “induced regressions”.

These data come from patent EP3409278B1, “HETEROCYCLIC PROTEIN KINASE INHIBITORS” (Tolero Pharmaceuticals, Inc., priority 2011, dated 2013).
